Values joined by “and” are separate entries in the source; they are usually repeats but may differ in a detail not shown here. Equal entries are not always repeated.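 Compound exposure: 48 hours, 5 concentrations, 96-well plates. GI50: concentration for 50% inhibition of growth. At the TGI there is no net growth.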 Starred links: 1 amine or outer side, 2 acyl side, 3 side chain; linkers in the order of their positions; H or OH if unused. Positions of bridges follow the written chain, without caps; N, C: chain ends. Non-standard residues stand in square brackets, D forms with d. Residues, ends and D or L forms follow the SMILES beside them. Chains are numbered I, II in the order given. Actinocin(1to9) = Cc1c2oc3c(C)ccc(C(=O)[*:2])c3nc-2c(C(=O)[*:1])c(N)c1=O; NMeV = CN[CH](C(=O)O)C(C)C; Sar = CNCC(=O)O

Test systems include NCI-H226 lung; SF-539 CNS; UACC-62 melanoma; SK-OV-3 ovarian; KM12 colon; A498 renal; HT29 colon; IGROV1 ovarian; DU-145 prostate; PC-3 prostate; ACHN renal; MDA-N.
Holding throughout (assay): inhibition of tumour cell growth, NCI panel, 48 h

Turning to `Cn1c(=O)[nH]c2nncnc2c1=O`, the TGI in the assay with NCI-H226 lung was 28.7 µM; in the assay on SF-539 CNS, 246 µM; in the assay with UACC-62 melanoma it was 146 µM; in the assay on SK-OV-3 ovarian, 498 µM; in the assay with KM12 colon, above 353 µM; in the assay on A498 renal, 475 µM. Moreover, the TGI in the assay on HT29 colon was above 561 µM; with IGROV1 ovarian it was 133 µM.

For the compound `Nc1ncnc2c1sc1nc3ccccc3n12`, the TGI is above 100 µM in the assay on NCI-H226 lung; 47.9 µM in the assay on SF-539 CNS; above 100 µM in the assay with UACC-62 melanoma; above 100 µM in the assay with SK-OV-3 ovarian; above 85 µM in the assay on KM12 colon; above 100 µM in the assay on DU-145 prostate. The TGI in the assay on PC-3 prostate, in the assay on A498 renal, in the assay on ACHN renal, with HT29 colon and in the assay on IGROV1 ovarian was above 100 µM throughout.

Turning to `COCC1CCCN1c1ccc(C=N/C(C#N)=C(\N)C#N)cc1` (stereo not drawn), the GI50 was 4.68 µM with NCI-H226 lung; 40.3 µM with SF-539 CNS; 27.5 µM in the assay with SK-OV-3 ovarian; above 100 µM with KM12 colon; 6.25 µM in the assay with DU-145 prostate; above 100 µM in the assay with A498 renal. Also, the TGI in the assay with NCI-H226 lung, with SF-539 CNS, in the assay on SK-OV-3 ovarian, in the assay with KM12 colon, with DU-145 prostate and with A498 renal was above 100 µM in each case.

As for `COc1ccc(C(=O)C2=NON3OC23C(=O)c2ccc(OC)cc2)cc1` (stereo not drawn), the TGI came to 33.3 µM with NCI-H226 lung; 24 µM with SF-539 CNS; 37 µM in the assay on UACC-62 melanoma; 33.7 µM in the assay with SK-OV-3 ovarian; 36.6 µM in the assay with KM12 colon; 18.2 µM in the assay with A498 renal. The TGI in the assay with ACHN renal came to 31.3 µM; in the assay on HT29 colon it was 52.9 µM; in the assay with IGROV1 ovarian, 27.3 µM.

As to `COCCNCc1ccc(-c2cc3nccc(Oc4ccc(NC(=S)NC(=O)Cc5ccc(F)cc5)cc4F)c3s2)nc1`, the GI50 is 1.98 µM in the assay with NCI-H226 lung; 0.909 µM in the assay with SF-539 CNS; 18.5 µM in the assay on SK-OV-3 ovarian; 0.328 µM with KM12 colon; 2.11 µM with A498 renal; 1.97 µM in the assay on ACHN renal. In addition, the GI50 with HT29 colon was 1.45 µM. For the same compound, the TGI amounted to 6.48 µM in the assay with NCI-H226 lung; 2.41 µM in the assay on SF-539 CNS; 34.4 µM with SK-OV-3 ovarian; 2 µM in the assay with KM12 colon; 8.71 µM in the assay on A498 renal; 4.54 µM in the assay with ACHN renal. In the assay with HT29 colon, the TGI amounted to 3.19 µM.

As to `O=c1ccc2nc3cc(Br)ccc3sc-2c1`, the TGI in the assay on NCI-H226 lung, in the assay on SF-539 CNS, in the assay on UACC-62 melanoma, with SK-OV-3 ovarian, in the assay with KM12 colon and with ACHN renal was above 100 µM throughout. The TGI with HT29 colon and in the assay on IGROV1 ovarian was above 100 µM throughout.

For the compound `OCc1cn(C(c2ccccc2)(c2ccccc2)c2ccccc2)cn1`, the TGI in the assay on MDA-N, in the assay with NCI-H226 lung, with SK-OV-3 ovarian, in the assay on DU-145 prostate, in the assay on PC-3 prostate and in the assay with ACHN renal was above 100 µM in each case. In addition, the TGI in the assay with HT29 colon and with IGROV1 ovarian was above 100 µM each time.

Turning to `N#CC12Cc3cc4c(cc3-c3cccc(c31)CCN2C(=O)c1ccccc1)OCO4` (stereo not drawn), the TGI in the assay on NCI-H226 lung, in the assay on SF-539 CNS, in the assay on UACC-62 melanoma, with SK-OV-3 ovarian, with KM12 colon and in the assay on A498 renal was above 100 µM throughout. The TGI with ACHN renal, in the assay on HT29 colon and in the assay on IGROV1 ovarian was above 100 µM throughout.

Turning to `OC(c1ccccc1)(c1ccccc1)c1nccc2ccccc12`, the TGI was above 100 µM in the assay on MDA-N; above 100 µM in the assay with UACC-62 melanoma; 70.2 µM in the assay with SK-OV-3 ovarian; above 100 µM in the assay on KM12 colon; above 100 µM in the assay on DU-145 prostate; above 100 µM with PC-3 prostate. Moreover, the TGI in the assay with ACHN renal, in the assay with HT29 colon and with IGROV1 ovarian was above 100 µM throughout.

In the case of `CCC(C)C1NC(=O)C(NC(=O)c2c3nc4c(C(=O)NC5C(=O)NC(C(C)CC)C(=O)N6CCCC6C(=O)N(C)CC(=O)N(C)C(C(C)C)C(=O)OC5C)ccc(C)c4oc-3c(C)c(=O)c2N)C(C)OC(=O)C(C(C)C)N(C)C(=O)CN(C)C(=O)C2CCCN2C1=O` (stereo not drawn) (I: TIP[Sar][NMeV] / II: TIP[Sar][NMeV]; ester I:1-I:C, II:1-II:C; linker I:N-II:N via Actinocin(1to9); configuration not given here), the TGI was 0.00698 µM with SF-539 CNS; 0.0105 µM in the assay on UACC-62 melanoma; 0.578 µM in the assay with SK-OV-3 ovarian; 0.194 µM in the assay with KM12 colon; 0.13 µM and 0.212 µM in the assay on PC-3 prostate; 0.0629 µM in the assay on A498 renal. Further, in the assay with HT29 colon, the TGI stood at 11.5 µM.

Turning to `COc1ccc2nc3c(C(=O)NCCN(C)C)cccc3cc2c1`, the TGI in the assay with NCI-H226 lung stood at 4.14 µM; in the assay with SF-539 CNS, 7.79 µM; in the assay on UACC-62 melanoma it was 3.33 µM; in the assay on SK-OV-3 ovarian it was 7.3 µM; in the assay on KM12 colon, 13 µM; in the assay on A498 renal, 3.08 µM. The values for the TGI in the assay on HT29 colon and with IGROV1 ovarian were 6.37 µM and 6.77 µM, respectively.
